Laboratory results from patent publication US6759207B2, “Fluorogenic or fluorescent reporter molecules and their applications for whole-cell fluorescence screening assays for caspases and other enzymes and the use thereof” (Cytovia, Inc., priority 1997, dated 2004).

Columns and labels:
[1] = Fluorescence of modified Rhodamine dyes (spectrometry and spectrofluorometry); type: physicochemical
Method: Modified Rhodamine dyes were evaluated using both conventional spectrometry and spectrofluorometry. For both types of analysis the dyes were dissolved in either methanol or 50 mM Tris at final dye concentrations ranging from 10 nM to 100 μM. An absorbance spectrum from wavelengths of 200 nm to 700 nm was determined for each dye using a Beckman DU-7000 spectrophotometer. The dyes all had absorbance peaks at around 470 to 480 nm. This wavelength was chosen as the fluorescence excitation wavelength and a full fluorescence emission spectrum was determined using a Hitachi F-2000 spectrofluorometer. For each dye, the emission peak was around 520 nm and the fluorescent output was measured under the conditions tested (see Table 1).

[2] = target: T1, recombinant CPP32 (Homo sapiens, UniProt P42574); assay: Fluorometric enzyme assay, cleavage of substrate by recombinant CPP32; type: biochemical; settings: for efficiency as substrate for CPP32: summary of Table 4
T1 construct: made in house; host or cells: Sf9 insect cells, baculovirus vector
T1 sequence (P42574 29-175 limits assumed): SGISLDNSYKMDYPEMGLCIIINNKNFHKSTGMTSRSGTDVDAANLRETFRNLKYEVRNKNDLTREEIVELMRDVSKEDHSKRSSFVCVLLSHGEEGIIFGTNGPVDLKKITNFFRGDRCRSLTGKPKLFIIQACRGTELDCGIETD
T1 sequence (P42574 176-277 limits assumed): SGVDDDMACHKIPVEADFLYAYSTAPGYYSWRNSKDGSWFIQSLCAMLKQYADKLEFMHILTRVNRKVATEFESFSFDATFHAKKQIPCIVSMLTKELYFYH
Method: (§1) The activities of N-(Z-VD)-N′-acetyl-Rhodamine 110, N-(Z-VAD)-N′-acetyl-Rhodamine 110, N-(Z-DEVD)-N′-acetyl-Rhodamine 110 SEQ ID NO:5, N-(Z-YVAD)-N-acetyl-Rhodamine 110 SEQ ID NO:2, (Z-VAD)2-Rhodamine 110 and (Z-YVAD)2-Rhodamine 110 SEQ ID NO:2 as synthetic substrates for recombinant CPP32 and ICE were measured in a fluorometric enzyme assay. […] See, Webb, N. R. et al., “Expression of proteins using recombinant Baculovirus,” Techniques 2:173-188 (1990). Cleavage of the synthetic substrates by the enzyme results in a fluorescent signal which is read in a spectrofluorometer or in a fluorometric microtiter plate reader. Using this assay, the Km and Vmax values were determined for each substrate with either CPP32 or ICE.
(§2) CPP32 and ICE dependent substrate cleavage was measured using the following buffer conditions: 100 mM HEPES pH 7.5, with 10% sucrose, 1% CHAPS, 5 mM glutathione, and 1-100 μM test substrate. Nonspecific enzyme cleavage was determined with the use of the specific CPP32 and ICE inhibitors consisted of an oligomer with the sequence Asp-Glu-Val-Asp or Tyr-Val-Ala-Asp, respectively, with an aldehyde group conjugated to the C-terminus. The assay for enzyme activity was typically carried out at 37° C. for 60 minutes.

[3] = target: T2, recombinant ICE (Homo sapiens, UniProt P29466); assay: Fluorometric enzyme assay, cleavage of substrate by recombinant ICE; type: biochemical; settings: for ICE Vmax / Km: 1-100 μM substrate, 37° C.; for Km: NA = no activity observed at 1-100 μM substrate, 3 h incubation; for efficiency as substrate for ICE: summary of Table 4
T2 construct: made in house; host or cells: Sf9 insect cells, baculovirus vector
T2 sequence (P29466 120-297 limits assumed): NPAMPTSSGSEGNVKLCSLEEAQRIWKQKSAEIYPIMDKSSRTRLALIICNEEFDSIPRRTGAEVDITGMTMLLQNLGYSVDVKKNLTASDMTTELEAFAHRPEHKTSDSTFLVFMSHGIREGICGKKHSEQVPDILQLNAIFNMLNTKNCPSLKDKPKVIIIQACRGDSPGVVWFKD
T2 sequence (P29466 317-404 limits assumed): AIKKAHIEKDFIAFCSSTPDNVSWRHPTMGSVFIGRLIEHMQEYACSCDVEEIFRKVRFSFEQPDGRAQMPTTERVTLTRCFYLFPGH
Method: as §1, §2

[4] = tested on: HL-60 cells; assay: Uptake and retention of modified Rhodamine dyes by HL-60 cells (epifluorescence microscopy); type: cell-based; settings: 10 μM or 50 μM dye; for staining of HL-60 cells: 37° C., serum-free Iscove's medium; for leakage of the dye into the medium / retention in cells: after washing
Method: HL-60 cells were placed in 5 ml of Iscove's medium (without serum or phenol-red) containing 10 μM or 50 μM N-octyloxycarbonyl-Rhodamine 110, N-decyloxycarbonyl-Rhodamine-110, N-dodecyloxycarbonyl-Rhodamine-110, N-hexyloxycarbonyl-Rhodamine-110, N-(ethylthio)carbonyl-Rhodamine 110 or Rhodamine 110. The cells were incubated for varying times at 37° C. in a CO2 incubator, recovered by centrifugation, and washed in 50 mL of ice-cold medium. The cells were re-centrifuged and the final pellet was resuspended in 50 μL of fresh medium. Aliquots of each cell suspension were placed in microslides and viewed on a Nikon inverted microscope with epifluorescent illumination.

CCCCCCCCSC(=O)Nc1ccc2c(c1)Oc1cc(N)ccc1C21OC(=O)c2ccccc21 (stereo not drawn) [N-(Octylthio)carbonyl-Rhodamine 110, N-(Octylthio)carbonyl Rhodamine 110]
Peak Emission Wavelength ([1]; Test Conc. 1 μM, MeOH): 520 nm | Peak Excitation Wavelength ([1]; Test Conc. 1 μM, MeOH): 470 nm | Signal Amplitude ([1]; Test Conc. 1 μM, MeOH): 471

CC(C)[C@H](NC(=O)[C@H](Cc1ccc(O)cc1)NC(=O)OCc1ccccc1)C(=O)N[C@@H](C)C(=O)N[C@@H](CC(=O)O)C(=O)Nc1ccc2c(c1)Oc1cc(NC(=O)[C@H](CC(=O)O)NC(=O)[C@H](C)NC(=O)[C@@H](NC(=O)[C@H](Cc3ccc(O)cc3)NC(=O)OCc3ccccc3)C(C)C)ccc1C21OC(=O)c2ccccc21 [(Z-YVAD)2-Rhodamine 110, (Z-Tyr-Val-Ala-Asp)2-Rhodamine 110]
efficiency as substrate for CPP32 [2]: not for CPP32 | ICE Vmax [3]: 14 nmol/min | Km [3]: 6 µM | efficiency as substrate for ICE [3]: efficient substrates

CCCCCCCCOC(=O)Nc1ccc2c(c1)Oc1cc(N)ccc1C21OC(=O)c2ccccc21 (stereo not drawn) [N-Octyloxycarbonyl-Rhodamine 110]
Peak Emission Wavelength ([1]; Test Conc. 1 μM, MeOH): 520 nm | Peak Excitation Wavelength ([1]; Test Conc. 1 μM, MeOH): 470 nm | Signal Amplitude ([1]; Test Conc. 1 μM, MeOH): 850 | staining of HL-60 cells [4]: stained HL-60 cells intensely | leakage of the dye into the medium / retention in cells [4]: almost no leakage of the dye into the medium

CCCCCCOC(=O)Nc1ccc2c(c1)Oc1cc(N)ccc1C21OC(=O)c2ccccc21 (stereo not drawn) [N-Hexyloxycarbonyl-Rhodamine 110, N-Hexyloxycarbonyl-Rhodamine-110]
Peak Emission Wavelength ([1]; Test Conc. 0.1 μM, MeOH): 520 nm | Peak Excitation Wavelength ([1]; Test Conc. 0.1 μM, MeOH): 465 nm | Signal Amplitude ([1]; Test Conc. 0.1 μM, MeOH): 109 | staining of HL-60 cells [4]: stained HL-60 cells less intensely | leakage of the dye into the medium / retention in cells [4]: still well-retained

COCCOCCOCCOC(=O)Nc1ccc2c(c1)Oc1cc(N)ccc1C21OC(=O)c2ccccc21 (stereo not drawn) [N-(2,5,8-Trioxadecyloxycarbonyl)-Rhodamine 110]
Peak Emission Wavelength ([1]; Test Conc. 1 μM, Tris): 520 nm | Peak Excitation Wavelength ([1]; Test Conc. 1 μM, Tris): 485 nm | Signal Amplitude ([1]; Test Conc. 1 μM, Tris): 2841

CC(=O)Nc1ccc2c(c1)Oc1cc(NC(=O)C(CC(=O)O)NC(=O)C(NC(=O)OCc3ccccc3)C(C)C)ccc1C21OC(=O)c2ccccc21 (stereo not drawn) [N-(Z-VD)-N′-Ac-Rhodamine 110, N-(Z-Val-Asp)-N′-acetyl-Rhodamine 110]
CPP32 Vmax ([2]; 1-100 μM substrate, 37° C.): 11 nmol/min | efficiency as substrate for CPP32 [2]: efficient substrate | efficiency as substrate for ICE [3]: not for ICE

CC(=O)Nc1ccc2c(c1)Oc1cc(NC(=O)[C@H](CC(=O)O)NC(=O)[C@H](C)NC(=O)[C@@H](NC(=O)[C@H](Cc3ccc(O)cc3)NC(=O)OCc3ccccc3)C(C)C)ccc1C21OC(=O)c2ccccc21 (stereo partly drawn) [N-(Z-YVAD)-N′-Ac-Rhodamine 110, N-(Z-Tyr-Val-Ala-Asp)-N′-acetyl-Rhodamine 110]
efficiency as substrate for CPP32 [2]: not for CPP32 | ICE Vmax [3]: 96 nmol/min | Km [3]: 32 µM | efficiency as substrate for ICE [3]: efficient substrates

N-Acetyl-Rhodamine 116
Peak Emission Wavelength ([1]; Test Conc. 1 μM, Tris): 530 nm | Peak Excitation Wavelength ([1]; Test Conc. 1 μM, Tris): 470 nm | Signal Amplitude ([1]; Test Conc. 1 μM, Tris): 644

CCCCCCCCCCCCOC(=O)Nc1ccc2c(c1)Oc1cc(N)ccc1C21OC(=O)c2ccccc21 (stereo not drawn) [N-Dodecyloxycarbonyl-Rhodamine 110, N-Dodecyloxycarbonyl-Rhodamine-110]
Peak Emission Wavelength ([1]; Test Conc. 1 μM, MeOH): 520 nm | Peak Excitation Wavelength ([1]; Test Conc. 1 μM, MeOH): 480 nm | Signal Amplitude ([1]; Test Conc. 1 μM, MeOH): 640 | staining of HL-60 cells [4]: stained HL-60 cells intensely | leakage of the dye into the medium / retention in cells [4]: almost no leakage of the dye into the medium

CCCCCCSC(=O)Nc1ccc2c(c1)Oc1cc(N)ccc1C21OC(=O)c2ccccc21 (stereo not drawn) [N-(Hexylthio)carbonyl-Rhodamine 110]
Peak Emission Wavelength ([1]; Test Conc. 1 μM, MeOH): 530 nm | Peak Excitation Wavelength ([1]; Test Conc. 1 μM, MeOH): 490 nm | Signal Amplitude ([1]; Test Conc. 1 μM, MeOH): 650

CC(C)[C@H](NC(=O)OCc1ccccc1)C(=O)N[C@@H](C)C(=O)N[C@@H](CC(=O)O)C(=O)Nc1ccc2c(c1)Oc1cc(NC(=O)[C@H](CC(=O)O)NC(=O)[C@H](C)NC(=O)[C@@H](NC(=O)OCc3ccccc3)C(C)C)ccc1C21OC(=O)c2ccccc21 [(Z-VAD)2-Rhodamine 110, (Z-Val-Ala-Asp)2-Rhodamine 110]
efficiency as substrate for CPP32 [2]: not for CPP32 | ICE Vmax [3]: 9 nmol/min | Km [3]: 21 µM | efficiency as substrate for ICE [3]: efficient substrates

CCSC(=O)Nc1ccc2c(c1)Oc1cc(N)ccc1C21OC(=O)c2ccccc21 (stereo not drawn) [N-(Ethylthio)carbonyl-Rhodamine 110]
Peak Emission Wavelength ([1]; Test Conc. 1 μM, Tris): 520 nm | Peak Excitation Wavelength ([1]; Test Conc. 1 μM, Tris): 490 nm | Signal Amplitude ([1]; Test Conc. 1 μM, Tris): 2430 | staining of HL-60 cells [4]: moderate, but still easily detectable staining | leakage of the dye into the medium / retention in cells [4]: slight leakage

CCCCOCCOC(=O)Nc1ccc2c(c1)Oc1cc(N)ccc1C21OC(=O)c2ccccc21 (stereo not drawn) [N-(2-Butoxyethoxy)carbonyl-Rhodamine 110, N-(2-Butoxyethoxycarbonyl)-Rhodamine 110]
Peak Emission Wavelength ([1]; Test Conc. 1 μM, Tris): 520 nm | Peak Excitation Wavelength ([1]; Test Conc. 1 μM, Tris): 470 nm | Signal Amplitude ([1]; Test Conc. 1 μM, Tris): 2047

CCOC(=O)Nc1ccc2c(c1)Oc1cc(N)ccc1C21OC(=O)c2ccccc21 (stereo not drawn) [N-Ethoxycarbonyl-Rhodamine 110]
Peak Emission Wavelength ([1]; Test Conc. 1 μM, Tris): 520 nm | Peak Excitation Wavelength ([1]; Test Conc. 1 μM, Tris): 485 nm | Signal Amplitude ([1]; Test Conc. 1 μM, Tris): 3070

CCCCCCN(C)C(=O)Nc1ccc2c(c1)Oc1cc(N)ccc1C21OC(=O)c2ccccc21 (stereo not drawn) [N-(N-Hexyl-N-methylcarbamyl)-Rhodamine 110]
Peak Emission Wavelength ([1]; Test Conc. 1 μM, Tris): 520 nm | Peak Excitation Wavelength ([1]; Test Conc. 1 μM, Tris): 470 nm | Signal Amplitude ([1]; Test Conc. 1 μM, Tris): 1466

CS(=O)(=O)Nc1ccc2c(c1)Oc1cc(N)ccc1C21OC(=O)c2ccccc21 (stereo not drawn) [N-Methylsulfonyl-Rhodamine-110, N-Methylsulfonyl-Rhodamine 110]
Peak Emission Wavelength ([1]; Test Conc. 1 μM, Tris): 520 nm | Peak Excitation Wavelength ([1]; Test Conc. 1 μM, Tris): 485 nm | Signal Amplitude ([1]; Test Conc. 1 μM, Tris): 988

CN(C)C(=O)Nc1ccc2c(c1)Oc1cc(N)ccc1C21OC(=O)c2ccccc21 (stereo not drawn) [N-Dimethylcarbamyl-Rhodamine-110, N-Dimethylcarbamyl-Rhodamine 110]
Peak Emission Wavelength ([1]; Test Conc. 0.1 μM, Tris): 520 nm | Peak Excitation Wavelength ([1]; Test Conc. 0.1 μM, Tris): 490 nm | Signal Amplitude ([1]; Test Conc. 0.1 μM, Tris): 446

COC(=O)Nc1ccc2c(c1)Oc1cc(N)ccc1C21OC(=O)c2ccccc21 (stereo not drawn) [N-Methoxycarbonyl-Rhodamine 110]
Peak Emission Wavelength ([1]; Test Conc. 0.1 μM, Tris): 520 nm | Peak Excitation Wavelength ([1]; Test Conc. 0.1 μM, Tris): 470 nm | Signal Amplitude ([1]; Test Conc. 0.1 μM, Tris): 254

CCCCCCCCCCOC(=O)Nc1ccc2c(c1)Oc1cc(N)ccc1C21OC(=O)c2ccccc21 (stereo not drawn) [N-Decyloxycarbonyl-Rhodamine 110, N-Decyloxycarbonyl-Rhodamine-110]
Peak Emission Wavelength ([1]; Test Conc. 1 μM, MeOH): 520 nm | Peak Excitation Wavelength ([1]; Test Conc. 1 μM, MeOH): 475 nm | Signal Amplitude ([1]; Test Conc. 1 μM, MeOH): 827 | staining of HL-60 cells [4]: stained HL-60 cells intensely | leakage of the dye into the medium / retention in cells [4]: almost no leakage of the dye into the medium

Cl.N=c1ccc2c(-c3ccccc3C(=O)O)c3ccc(N)cc3oc-2c1 [Rhodamine 110, reference compound]
Peak Emission Wavelength ([1]; Test Conc. 0.01 μM, Tris): 520 nm | Peak Excitation Wavelength ([1]; Test Conc. 0.01 μM, Tris): 490 nm | Signal Amplitude ([1]; Test Conc. 0.01 μM, Tris): 284 | staining of HL-60 cells [4]: low intensity of cellular staining | leakage of the dye into the medium / retention in cells [4]: quickly leaked out of the cells
